In data set [1] the target is T1, Strep‐TP‐spacer‐RT‐His8 (HBVpol 1‐690aa; TP‐RT) (Hepatitis B virus ar/Japan/S-207/1988, UniProt Q9YZR5).
T1 construct: gene P; residues 1-690 of HBV polymerase (TP, spacer, RT); no polymerase activity detected
T1 sequence (Q9YZR5 1-690): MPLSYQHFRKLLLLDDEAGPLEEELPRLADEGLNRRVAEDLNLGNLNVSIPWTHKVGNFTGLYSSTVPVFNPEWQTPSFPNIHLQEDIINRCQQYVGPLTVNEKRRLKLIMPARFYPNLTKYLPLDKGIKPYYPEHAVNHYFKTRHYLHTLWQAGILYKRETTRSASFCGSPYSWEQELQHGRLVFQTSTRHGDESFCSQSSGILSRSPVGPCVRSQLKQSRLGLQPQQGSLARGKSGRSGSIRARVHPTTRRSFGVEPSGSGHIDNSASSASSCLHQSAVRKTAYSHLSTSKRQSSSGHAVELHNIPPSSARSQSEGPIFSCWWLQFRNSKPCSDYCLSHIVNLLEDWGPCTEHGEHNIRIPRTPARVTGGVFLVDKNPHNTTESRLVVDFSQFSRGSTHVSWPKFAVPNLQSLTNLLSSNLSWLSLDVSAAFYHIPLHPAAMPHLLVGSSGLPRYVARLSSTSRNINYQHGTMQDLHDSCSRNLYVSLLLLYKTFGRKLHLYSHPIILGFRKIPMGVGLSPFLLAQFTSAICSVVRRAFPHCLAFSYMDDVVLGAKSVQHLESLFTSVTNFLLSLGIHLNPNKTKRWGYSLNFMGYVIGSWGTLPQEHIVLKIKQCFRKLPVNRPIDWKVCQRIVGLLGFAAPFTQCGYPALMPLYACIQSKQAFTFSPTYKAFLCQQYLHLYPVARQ
The data set is described as follows: surface plasmon resonance. As to conditions: binding considered nonspecific by the authors (also binds GFP control); unreliable. On the technique in general: SPR reads the build-up and loss of mass on a sensor chip optically.

In data set [2] the target is T1, Strep‐TP‐spacer‐RT‐His8 (HBVpol 1‐690aa; TP‐RT). Briefly: plate assay, inhibition of DIG-labelled epsilon RNA binding to immobilised protein, luminescence. As to conditions: 5 pmol DIG-epsilon RNA WT, pH 7.5, room temperature, 3 hr; binding considered nonspecific by the authors; unreliable.
In data set [3] the target is T2, Strep‐TP‐spacer‐RT‐His8 (HBVpol 1‐690aa; TP‐RT) (Hepatitis B virus ar/Japan/S-207/1988, UniProt Q9YZR5).
T2 construct: gene P; residues 1-690 of HBV polymerase (TP, spacer, RT); no polymerase activity detected
The description is as above. As to conditions: 5 pmol DIG-epsilon RNA WT, pH 7.5, room temperature, 3 hr.

In data set [4] the target is T2, Strep‐TP‐spacer‐RT‐His8 (HBVpol 1‐690aa; TP‐RT). Briefly: surface plasmon resonance. The format is binding.
In data set [5] the target is T3, Strep-TP-spacer-RT-His8 (HBV polymerase TP-spacer-RT), refolded (Hepatitis B virus, UniProt Q9YZR5 1-690).
T3 sequence: T1 sequence (Q9YZR5 1-690)
Briefly: streptavidin plate binding assay (anti-DIG-HRP luminescence); refolded protein; 5 pmol RNA; 50 mM Tris-HCl pH 7.5, 150 mM NaCl, 1 mM EDTA, 0.05% NP-40, 1 mg/ml BSA, 1 ug/ml poly(I/C), 0.1% protease inhibitor cocktail, 2 mM DTT; room temperature, 3 h (competition 30 min). As to conditions: protein: recombinant, tags: N-terminal Strep, self-annealed.

Data set [6] deals with T4, His6-SUMO-TP (Hepatitis B virus, UniProt Q9YZR5 1-177).
T4 sequence: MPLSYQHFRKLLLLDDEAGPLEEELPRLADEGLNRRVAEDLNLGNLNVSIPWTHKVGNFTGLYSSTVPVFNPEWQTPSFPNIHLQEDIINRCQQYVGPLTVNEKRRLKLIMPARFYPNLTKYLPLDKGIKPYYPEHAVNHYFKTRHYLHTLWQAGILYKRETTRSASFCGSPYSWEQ
Briefly: nickel plate binding assay (anti-DIG-HRP luminescence); 5 pmol RNA; no specific binding; 50 mM Tris-HCl pH 7.5, 150 mM NaCl, 1 mM EDTA, 0.05% NP-40, 1 mg/ml BSA, 1 ug/ml poly(I/C), 0.1% protease inhibitor cocktail, 2 mM DTT; room temperature, 3 h (competition 30 min). The settings on record: protein: recombinant; tags: N-terminal His6-SUMO; hairpin with central bulge and apical loop, self-annealed.

Data on four molecules can be found in publication PMC7496097, “Establishment of a system for finding inhibitors of ε RNA binding with the HBV polymerase” (Genes to Cells, 2020).

A word on the KD: it is a measure of binding affinity in units of concentration. A word on the IC50: it is the concentration that inhibits the measured activity by half. Higher therefore signals weaker potency. In turn, `NC(Cc1cc(O)c(O)cc1O)C(=O)O` (racemic) [6‐hydroxy‐DL‐DOPA] yielded a KD in data set [1] of 11 nM. Besides, in data set [2], the IC50 was ~ 6.6 µM.
Usually Kd stands for the free concentration of one partner at which half of the binding sites on the other are occupied at equilibrium, for simple one-to-one binding. A low value points to a tighter complex. The molecule `CCCCCCCC/C=C\CCCCCCCC(=O)NCCc1ccc(O)c(O)c1` [N‐oleoyldopamine] gave an IC50 in data set [3] of around 410 nM. Further, the Kd in data set [4] stood at 72 nM.

B1: epsilon dBdL RNA (central bulge and apical loop deleted) (structured_RNA)
RNA: UCUCAUGUUCAUGUCCUAGCCUCCAAUUGGGUGGCUUUGGGGCAUGGACAUUGAC
Regarding B1, the binding result in data set [5] (hairpin) is “no binding”.

B2: epsilon WT RNA (structured_RNA)
RNA: UCUCAUGUUCAUGUCCUACUGUUCAAGCCUCCAAGCUGUGCCUUGGGUGGCUUUGGGGCAUGGACAUUGA
On to B2, for which the binding result is “no binding” in data set [6]; “binds” in data set [5] (hairpin with central bulge and apical loop).
